Assay results as given in patent US6528516B1, “Methods for reducing intraocular pressure using A3 adenosine receptor antagonists” (Trustees of the University of Pennsylvania, The Center for …, priority 1998, dated 2003).
Entries after “also recorded” stand apart in the source; their conditions may differ.

How the values were obtained:
[1] = tested on: HCE (human ciliary epithelial) cell line, NPE cells; test: Cell volume (shrinkage) of NPE cells in isosmotic solution, Coulter Counter, 5 μM gramicidin; type: cell-based; settings: for effect of A3 antagonist on shrinkage triggered by 3 μM CGS-21680: 100 nM MRS-1191 preincubation; for effect of A3 antagonist on adenosine-stimulated isotonic shrinkage: 300 nM MRS-1097, 100 nM MRS-1191, 100 nM MRS-1523, 10 μM adenosine; for effect of A3 antagonist on IB-MECA-stimulated isotonic shrinkage: 2 min preincubation, MRS-1097 300 nM, MRS-1191 100 nM, 100 nM IB-MECA
Procedure: A 0.5-ml aliquot of the HCE cell suspension in DMEM was added to 20 ml of each test solution, which contained (in mM): 110.0 NaCl, 15.0HEPES [4-(2-hydroxyethyl)-1-piperazineethanesulfonic acid], 2.5 CaCl2, 1.2 MgCl2, 4.7 KCl, 1.2 KH2PO4, 30.0 NaHCO3, and 10.0 glucose, at a pH of 7.4 and osmolality of 298-305 mOsm. Parallel aliquots of cells were studied on the same day. One aliquot usually served as a control, and the others were exposed to different experimental conditions at the time of suspension. The same amount of solvent vehicle (dimethylformamide, DMSO or ethanol) was always added to the control and experimental aliquots. The sequence of studying the suspensions was varied to preclude systematic time-dependent artifacts (Civan et al., Exp. Eye Res. 54:181-191, 1992).
Cell volumes of isosmotic suspensions were measured with a Coulter Counter (model ZBI-Channelyzer II), using a 100-μm aperture (Civan et al., supra., 1994). As previously described (Wax et al., supra., 1993), the cell volume (vC) of the suspension was taken as the peak of the distribution function. Cell shrinkage was fit as a function of time (t) to a monoexponential function:
vC=v∞+(v0−v∞)−[e^−(t−t^0^)/τ] {1}
where v∞ is the steady-state cell volume, v0 is the cell volume at the first point (t0) of the time course to be fit, and τ is the time constant of the shrinkage. For purposes of data reduction, the data were normalized to the first time point, taken to be 100% isotonic volume. Fits were obtained by nonlinear least-squares regression analysis, permitting both v∞and τ to be variables.
In order to differentiate among these receptors, the experiments were repeated in the present study using a series of agonists and antagonists selective for these receptors. As we wished to identify the effects of these receptors specifically on Cl^− channels, 5 μM gramicidin D was included in all solutions to eliminate any potential contribution from K^+ channels. This ionophore readily partitions into plasma membranes to form a cation-selective pore, and is widely used for studying volume regulation (Hoffmann et al., in Interaction of Cell Volume and Cell Function, Lang et al., eds., Springer, Heidelberg, Germany, pp. 188-248, (ACEP Series 14), 1993)). Under these conditions, release of cell Cl^− becomes the rate-limiting factor in both hypo-(Civan et al., Exp. Eye Res. 54:181-191, 1992) and isoosmotic cell shrinkage (Carre et al., supra., 1997).

human A2 receptors = settings: read-out: Ki for binding to human A2 receptors; cited from earlier work
[2] = biological target: T1, recombinant human A2B receptors (Homo sapiens, UniProt P29275); test: Radioligand binding to recombinant human A2B receptors; settings: at 10 μM
T1 sequence (P29275 1-332): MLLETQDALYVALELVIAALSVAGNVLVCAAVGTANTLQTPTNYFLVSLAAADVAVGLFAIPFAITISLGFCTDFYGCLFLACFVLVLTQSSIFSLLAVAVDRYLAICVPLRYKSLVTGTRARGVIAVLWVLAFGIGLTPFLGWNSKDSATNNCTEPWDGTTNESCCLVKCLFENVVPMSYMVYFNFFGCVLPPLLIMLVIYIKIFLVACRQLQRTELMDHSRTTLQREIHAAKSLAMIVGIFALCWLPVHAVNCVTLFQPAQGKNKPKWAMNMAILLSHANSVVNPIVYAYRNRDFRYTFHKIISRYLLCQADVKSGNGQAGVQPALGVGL

A2A receptors = biological target: T2, A2A receptors (Rattus norvegicus, UniProt P30543); test: Radioligand binding, [3H]CGS 21680, rat striatal membranes; settings: at 100 μM
T2 construct: to A2A receptors from rat striatal membranes; from tissue; host or cells: rat striatal membranes
Procedure: (§1) Radioligand binding studies. Binding of [^3H]R-N^6-phenylisopropyladenosine ([^3H]R-PIA) to A1 receptors from rat cerebral cortex membranes and of [^3H]-2-[4-[(2-carboxyethyl)phenyl]ethylamino]-5′-N-ethylcarbamoyladenosine ([^3H]CGS 21680) to A2A receptors from rat striatal membranes was performed as described previously (Schwabe et al., Naunyn Schmiedeberg Arch. Pharmacol. 313:179-187, 1980; Jarvis et al., J. Pharmacol. Exp. Ther. 251:888-893, 1989) Adenosine deaminase (3 units/mL) was present during the preparation of the brain membranes, in a pre-incubation of 30 min at 30° C., and during the incubation with the radioligands. Nonspecific binding was determined in the presence of 10 μM (A1 receptors) or 20 μM (A2A receptors)2-chloroadenosine.
(§2) All non-radioactive compounds were initially dissolved in DMSO, and diluted with buffer to the final concentration, where the amount of DMSO never exceeded 1%. Incubations were terminated by rapid filtration over Whatman GF/B filters, using a Brandell cell harvester (Brandell, Gaithersburg, MD). The tubes were rinsed three times with 3 mL buffer each.
(§3) At least five different concentrations of competitor, spanning 3 orders of magnitude adjusted appropriately for the IC50 of each compound, were used.

A1 receptors = biological target: T3, A1 receptors (Rattus norvegicus, UniProt P25099); test: Radioligand binding, [3H]R-PIA, rat cerebral cortex membranes
T3 construct: A1 receptors from rat cerebral cortex membranes; from tissue; host or cells: rat cerebral cortex membranes
T3 sequence (P25099 1-326): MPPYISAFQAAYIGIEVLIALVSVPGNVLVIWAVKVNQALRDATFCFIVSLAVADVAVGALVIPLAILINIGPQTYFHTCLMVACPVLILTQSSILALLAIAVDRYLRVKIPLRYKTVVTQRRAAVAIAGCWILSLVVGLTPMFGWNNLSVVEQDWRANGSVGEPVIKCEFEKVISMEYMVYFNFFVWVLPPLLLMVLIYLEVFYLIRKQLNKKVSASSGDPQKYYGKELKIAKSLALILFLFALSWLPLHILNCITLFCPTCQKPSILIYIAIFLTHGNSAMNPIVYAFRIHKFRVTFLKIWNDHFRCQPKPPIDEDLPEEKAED
Procedure: as §1, §2, §3

human A3 receptor = biological target: T4, human A3 receptor (Homo sapiens, UniProt P0DMS8); test: Radioligand binding, [125I]AB-MECA, HEK-293 cell membranes; parameters: host or cells: HEK-293; settings: read-out: Ki(hA3)
T4 sequence (P0DMS8 1-318): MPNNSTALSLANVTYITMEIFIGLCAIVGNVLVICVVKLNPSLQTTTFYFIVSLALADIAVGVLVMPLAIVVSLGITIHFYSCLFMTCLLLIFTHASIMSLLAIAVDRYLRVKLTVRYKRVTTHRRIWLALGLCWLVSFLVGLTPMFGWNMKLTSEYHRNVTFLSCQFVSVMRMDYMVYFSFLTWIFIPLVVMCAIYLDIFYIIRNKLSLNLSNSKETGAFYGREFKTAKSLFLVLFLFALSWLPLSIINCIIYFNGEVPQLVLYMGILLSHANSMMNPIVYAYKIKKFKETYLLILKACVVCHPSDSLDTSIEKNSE
Procedure: Natl. Acad. Sci. […] Natl. Acad. Sci. U.S.A. 89:7432-7436, 1992) was performed as described at 4° C. (Olah et al., Mol. Pharmacol. 45:978-982, 1994). The assay medium consisted of a buffer containing 10 mM Mg^2+, 50 mM Tris, 3 units/mL adenosine deaminase, and 1 mM EDTA, at pH 8.0 (4° C.). […] Incubations were terminated by rapid filtration over Whatman GF/B filters, using a Brandell cell harvester (Brandell, Gaithersburg, MD). The tubes were rinsed three times with 3 mL buffer each. At least five different concentrations of competitor, spanning 3 orders of magnitude adjusted appropriately for the IC50 of each compound, were used. IC50 values, calculated with the nonlinear regression method implemented in the InPlot program (Graph-PAD, San Diego, Calif.), were converted to apparent Ki values using the Cheng-Prusoff equation (Cheng et al., Biochem.

[3] = Oxidation of 1-methyl-1,4-dihydropyridine in rat brain homogenate; type: in vitro ADME; settings: rat brain homogenate supernatant, pH 7.4, 37 C, read-out: t½ of oxidation to pyridinium salt 11
Procedure: The rat brain homogenate was prepared by the following method. One rat ([…]) was killed and the brain (weighing 2.26 g) was removed, and homogenized in 12 mL PBS (Biofluids, Inc., 1×pH 7.4). The homogenate was centrifuged at 12,000×rpm, and the supernatant was used. 5 mg of 24 dissolved in 0.2 mL of DMSO was mixed with 10 mL of brain homogenate (initial concentration of 1.27 mM), which was previously equilibrated to 37° C. in a water bath incubator, and shaking was continued at that temperature. Aliquots of 500 μL were withdrawn at 2, 4, 8, 16, 32, 64, 128, 256, 768 min (2×each) from the test medium, added immediately to 3 mL of ice-cold ethyl ether, shaken vigorously, and placed in a freezer. When all samples had been collected, and the ether layer of each sample was separated. After evaporation of the ether, each residue was dissolved in 200 μL methanol, filtered through Whatman 1 filter paper and analyzed by HPLC.
Pyridinium salt 11 could be generated through oxidation of the corresponding reduced precursor, 1-methyl-2,4-diethyl-3-(ethylsulfanylcarbonyl)-5-ethyloxycarbonyl-6-phenyl-1,4-dihydropyridine, 24. The conversion of 24 to 11 by chemical means (iodine in nitromethane) and during incubation at 37 C with rat brain membranes, to simulate in vivo conditions, was studied. The chemical conversion occurred readily, and the time course of the biochemical oxidation was recorded . […]

A1 and A2A receptors = test: Estimated occupancy of A1 and A2A receptors at the concentrations used; settings: at the concentrations used (300 nM MRS 1097, 100 nM MRS 1191, 100 nM MRS 1523)

T2 sequence (P30543 whole entry): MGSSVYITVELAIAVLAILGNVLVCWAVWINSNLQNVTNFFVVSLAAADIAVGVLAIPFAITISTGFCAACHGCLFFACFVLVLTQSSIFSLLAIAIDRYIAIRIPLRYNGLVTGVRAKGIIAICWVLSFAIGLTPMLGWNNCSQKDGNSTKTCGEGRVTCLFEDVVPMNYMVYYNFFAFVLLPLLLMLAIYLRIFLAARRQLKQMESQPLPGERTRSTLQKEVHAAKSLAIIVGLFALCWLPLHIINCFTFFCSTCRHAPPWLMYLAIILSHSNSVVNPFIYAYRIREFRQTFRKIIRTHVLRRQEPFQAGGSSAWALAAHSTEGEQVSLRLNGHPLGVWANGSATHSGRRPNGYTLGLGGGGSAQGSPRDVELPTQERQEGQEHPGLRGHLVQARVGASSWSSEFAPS

| Compound | effect of A3 antagonist on shrinkage triggered by 3 μM CGS-21680 [1] | effect of A3 antagonist on shrinkage triggered by 3 μM CGS-21680 ([1]; listed as MRS 1191) | effect on cell volume in the absence of IB-MECA ([1]; 100 nM antagonist alone) | effect of A3 antagonist on adenosine-stimulated isotonic shrinkage [1] | effect of A3 antagonist on adenosine-stimulated isotonic shrinkage ([1]; listed as MRS 1191) | effect of A3 antagonist on IB-MECA-stimulated isotonic shrinkage [1] | effect of A3 antagonist on IB-MECA-stimulated isotonic shrinkage ([1]; listed as MRS 1191) | Ki (human A2 receptors) [µM] | displacement of radioligand binding to recombinant human A2B receptors [2] | percent displacement of specific radioligand binding at rat A2A receptors (A2A receptors) [%] | Ki (A1 receptors) [µM] | Ki (human A3 receptor) [µM] | half-life at 1.27 mM [3] [min] | effect of A3 antagonist on adenosine-stimulated isotonic shrinkage ([1]; listed as MRS 1097) | effect of A3 antagonist on IB-MECA-stimulated isotonic shrinkage ([1]; listed as MRS 1097) | share of the A1 and A2A receptors that could have been occupied (A1 and A2A receptors) [%] |
| --- | --- | --- | --- | --- | --- | --- | --- | --- | --- | --- | --- | --- | --- | --- | --- | --- |
| CCOC(=O)C1=C(C)NC(c2ccccc2)=C(C(=O)OCc2ccccc2)C1C#Cc1ccccc1 (racemic) [MRS-1191, 3-ethyl 5-benzyl-2-methyl-6-phenyl-4-phenylethynyl-1,4-(±)-dihydropyridine-3,5-dicarboxylate] | abolished this effect; also recorded: blocked | prevented this shrinkage | did not affect cell volume | prevented the characteristic shrinkage | blocked the shrinkage | prevented characteristic shrinkage | prevent the shrinkage | > 100 | did not displace radioligand binding |  |  |  |  |  |  |  |
| CCOC(=O)C1=C(c2ccccc2)N(C)C(CC)=C(C(=O)SCC)C1CC (stereo not shown) [Compound 24, 1-Methyl-2,4-diethyl-3-(ethylsulfanylcarbonyl)5-ethyloxycarbonyl-6-phenyl-1,4-dihydropyridine] |  |  |  |  |  |  |  |  |  | 48±7 | 28.4 ± 2.5 | 0.379 ± 0.122 | ~47 |  |  |  |
| 3-ethyl 5-benzyl-2-methyl-6-phenyl-4-styryl-1,4-(±)-dihydropyridine-3,5-dicarboxylate [MRS-1097] |  |  |  | prevented the characteristic shrinkage |  | prevented shrinkage |  | 4.77 |  |  |  |  |  | blocked the shrinkage | blocked the isoomotic shrinkage; also recorded: prevented the subsequent response; also recorded: prevent the shrinkage | < 20 |
